Results from PubChem BioAssay AID2060883 (Molecular Pharmacology Branch, DTP, NCI, 2025).

Tested on: 843782-103-R-J1-PDC complex spheroid viability
Test: Anticancer human tumor 843782-103-R-J1-PDC patient-derived lung adenocarcinoma cell line growth inhibition [RAS]
Conditions: for IC50: curve of first compound; for viability, T/C: stronger effect = lower value
Method in brief: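 Tumour cells grown as complex spheroids with HUVEC endothelial cells and mesenchymal stem cells, treated with RAS pathway inhibitor combinations. Each agent spans half-log steps from near clinical Cmax, or 10 microM where Cmax is unknown.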
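Also: viability read after seven days of compound exposure.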

CC1(C)CCC(Nc2ncc(C(F)(F)F)c(-c3c[nH]c4c(P(C)(C)=O)c(C#N)ccc34)n2)CN1 (centres undefined) + C=CC(=O)N1CCN(c2nc(OCC3CCCN3C)nc3c(F)c(-c4nc(N)cc(C)c4C(F)(F)F)c(Cl)cc23)C(C)C1
IC50 (second compound 0.00316 µM): 6.62 nM | IC50 (second compound 0.01 µM): 7.23 nM | IC50 (second compound 0.0316 µM): 7.99 nM | IC50 (second compound 0.1 µM): 5.81 nM | IC50 (second compound 0.316 µM): 6.75 nM | IC50 (second compound 1 µM): 6.96 nM | viability, T/C (second compound 0.00316 µM, first compound 0.000949 µM): 85.3% | viability, T/C (second compound 0.00316 µM, first compound 0.003 µM): 72.8% | viability, T/C (second compound 0.00316 µM, first compound 0.00949 µM): 38.8% | viability, T/C (second compound 0.00316 µM, first compound 0.03 µM): 25.7% | viability, T/C (second compound 0.00316 µM, first compound 0.0949 µM): 13.6% | viability, T/C (second compound 0.00316 µM, first compound 0.3 µM): 21.5% | viability, T/C (second compound 0.01 µM, first compound 0.000949 µM): 89.1% | viability, T/C (second compound 0.01 µM, first compound 0.003 µM): 75.6% | viability, T/C (second compound 0.01 µM, first compound 0.00949 µM): 42% | viability, T/C (second compound 0.01 µM, first compound 0.03 µM): 23% | viability, T/C (second compound 0.01 µM, first compound 0.0949 µM): 18.5% | viability, T/C (second compound 0.01 µM, first compound 0.3 µM): 18.8% | viability, T/C (second compound 0.0316 µM, first compound 0.000949 µM): 82.7% | viability, T/C (second compound 0.0316 µM, first compound 0.003 µM): 81.2% | viability, T/C (second compound 0.0316 µM, first compound 0.00949 µM): 44.5% | viability, T/C (second compound 0.0316 µM, first compound 0.03 µM): 22.1% | viability, T/C (second compound 0.0316 µM, first compound 0.0949 µM): 20.6% | viability, T/C (second compound 0.0316 µM, first compound 0.3 µM): 18% | viability, T/C (second compound 0.1 µM, first compound 0.000949 µM): 87.8% | viability, T/C (second compound 0.1 µM, first compound 0.003 µM): 70% | viability, T/C (second compound 0.1 µM, first compound 0.00949 µM): 35.7% | viability, T/C (second compound 0.1 µM, first compound 0.03 µM): 18.3% | viability, T/C (second compound 0.1 µM, first compound 0.0949 µM): 19.3% | viability, T/C (second compound 0.1 µM, first compound 0.3 µM): 18.9% | viability, T/C (second compound 0.316 µM, first compound 0.000949 µM): 87.3% | viability, T/C (second compound 0.316 µM, first compound 0.003 µM): 72.7% | viability, T/C (second compound 0.316 µM, first compound 0.00949 µM): 40.9% | viability, T/C (second compound 0.316 µM, first compound 0.03 µM): 21.7% | viability, T/C (second compound 0.316 µM, first compound 0.0949 µM): 19.3% | viability, T/C (second compound 0.316 µM, first compound 0.3 µM): 19.6% | viability, T/C (second compound 1 µM, first compound 0.000949 µM): 95.3% | viability, T/C (second compound 1 µM, first compound 0.003 µM): 69.8% | viability, T/C (second compound 1 µM, first compound 0.00949 µM): 45% | viability, T/C (second compound 1 µM, first compound 0.03 µM): 23.5% | viability, T/C (second compound 1 µM, first compound 0.0949 µM): 19.5% | viability, T/C (second compound 1 µM, first compound 0.3 µM): 23.7%

CC1(O)CCCC1n1c(=O)c(C(F)F)cc2cnc(NC3CCN(S(C)(=O)=O)CC3)nc21 (centres undefined) + CCn1c(-c2cc(N3CCN(C)CC3)cnc2C(C)OC)c2c3cc(ccc31)-c1csc(n1)CC(NC(=O)C1CC1C)C(=O)N1CCCC(N1)C(=O)OCC(C)(C)C2
IC50 (second compound 0.000949 µM): 123 nM | IC50 (second compound 0.003 µM): 52.7 nM | IC50 (second compound 0.00949 µM): < 31.6 nM | IC50 (second compound 0.03 µM): < 31.6 nM | IC50 (second compound 0.0949 µM): < 31.6 nM | IC50 (second compound 0.3 µM): < 31.6 nM | viability, T/C (second compound 0.000949 µM, first compound 0.0316 µM): 68.6% | viability, T/C (second compound 0.000949 µM, first compound 0.1 µM): 57% | viability, T/C (second compound 0.000949 µM, first compound 0.316 µM): 18.5% | viability, T/C (second compound 0.000949 µM, first compound 1 µM): 14.9% | viability, T/C (second compound 0.000949 µM, first compound 3.16 µM): 11.1% | viability, T/C (second compound 0.000949 µM, first compound 10 µM): 2.8% | viability, T/C (second compound 0.003 µM, first compound 0.0316 µM): 58.1% | viability, T/C (second compound 0.003 µM, first compound 0.1 µM): 42.5% | viability, T/C (second compound 0.003 µM, first compound 0.316 µM): 16.6% | viability, T/C (second compound 0.003 µM, first compound 1 µM): 17.5% | viability, T/C (second compound 0.003 µM, first compound 3.16 µM): 13.2% | viability, T/C (second compound 0.003 µM, first compound 10 µM): 2.6% | viability, T/C (second compound 0.00949 µM, first compound 0.0316 µM): 37.4% | viability, T/C (second compound 0.00949 µM, first compound 0.1 µM): 24.2% | viability, T/C (second compound 0.00949 µM, first compound 0.316 µM): 14.6% | viability, T/C (second compound 0.00949 µM, first compound 1 µM): 15.8% | viability, T/C (second compound 0.00949 µM, first compound 3.16 µM): 13.1% | viability, T/C (second compound 0.00949 µM, first compound 10 µM): 3.41% | viability, T/C (second compound 0.03 µM, first compound 0.0316 µM): 18.4% | viability, T/C (second compound 0.03 µM, first compound 0.1 µM): 15.7% | viability, T/C (second compound 0.03 µM, first compound 0.316 µM): 13% | viability, T/C (second compound 0.03 µM, first compound 1 µM): 12.7% | viability, T/C (second compound 0.03 µM, first compound 3.16 µM): 13.5% | viability, T/C (second compound 0.03 µM, first compound 10 µM): 2.9% | viability, T/C (second compound 0.0949 µM, first compound 0.0316 µM): 15.8% | viability, T/C (second compound 0.0949 µM, first compound 0.1 µM): 13.8% | viability, T/C (second compound 0.0949 µM, first compound 0.316 µM): 10.8% | viability, T/C (second compound 0.0949 µM, first compound 1 µM): 11.4% | viability, T/C (second compound 0.0949 µM, first compound 3.16 µM): 12% | viability, T/C (second compound 0.0949 µM, first compound 10 µM): 3.5% | viability, T/C (second compound 0.3 µM, first compound 0.0316 µM): 14.1% | viability, T/C (second compound 0.3 µM, first compound 0.1 µM): 13.6% | viability, T/C (second compound 0.3 µM, first compound 0.316 µM): 9.45% | viability, T/C (second compound 0.3 µM, first compound 1 µM): 10% | viability, T/C (second compound 0.3 µM, first compound 3.16 µM): 9.83% | viability, T/C (second compound 0.3 µM, first compound 10 µM): 3.16%
